From patent publication US8445491B2, “Wnt protein signalling inhibitors” (The Board of Regents of the University of Texas System, priority 2008, dated 2013)

system: Wnt/β-catenin pathway; assay: luciferase-based reporter assay (SuperTopFlash) measuring Wnt/β-catenin-dependent transcriptional response, L-Wnt-STF cells; type: cell-based; conditions: Mus musculus; Table 1; luciferase reporter of Wnt/β-catenin-dependent transcriptional response
Procedure: Tables 1 and 2 provides further examples of such compounds, as well as their activities as determined by a luciferase-based reporter assay that measures Wnt/β-catenin-dependent transcriptional response.
For the “primary screen” and “dose-dependent test,” ˜5,000 L-Wnt-STF cells were seeded into each well of a white opaque 384 well plate and individual compounds from the UTSW chemical library added 24 hrs later to each well at a final concentration of 2.5 μM (primary screen) or otherwise indicated concentrations. Luciferase activities were measured 24 hrs later. To identify FL inhibitors and compounds that blocked protein secretion, L-cells were transiently transfected with CMV-FL and CMV-GL constructs and immediately incubated with compounds. Culture medium and cell lysates were analyzed for GL and FL activities, respectively, after 24 hrs. For the “exogenous Wnt test,” Wnt3A-containing conditioned medium, prepared following the protocol provided ATCC, was applied to HEK293 cells transiently transfected with STF and control reporters. For Hedgehog and Notch tests, NIH-3T3 cells or L-cells, respectively, were transiently transfected with indicated reporter constructs and immediately incubated with compounds. Luciferase activities were measured 24 hrs later. The “Wnt secretion test” was performed in L-cells transiently transfected with the Wnt-GL expression construct and immediately incubated with compounds. Culture medium and cellular lysate were analyzed 48 hrs later for GL activity. Assays used to calculate IC50's for compounds were performed as before in L-Wnt-STF cells.
A brief overview of the screen is as follows: mouse L-cells that stably harbor a well-characterized Wnt/β-catenin pathway-responsive firefly luciferase (FL) reporter plasmid (SuperTopFlash or STF), a control reporter, and an expression construct encoding the Wnt protein, Wnt3A, were exposed to individual compounds for two days prior to measurement of reporter activities. Chemicals that altered FL but not control reporter activity were selected for further testing (FIG. 1; FIG. 8). The screening strategy allows for identification of compounds that either potentially increase or decrease Wnt/β-catenin pathway activity.

Structure (SMILES) | EC50
O=C(NCc1ccncc1)c1ccc(N2C(=O)[C@@H]3[C@@H]4C=CC(C4)[C@@H]3C2=O)cc1 [Compound 32] | 10 µM
O=C(Nc1ccc(F)cc1F)c1ccc(N2C(=O)[C@@H]3[C@@H]4C=CC(C4)[C@@H]3C2=O)cc1 [Compound 17] | 9 µM
O=C(Nc1ccc(Br)cc1)c1ccc(N2C(=O)[C@@H]3[C@@H]4C=CC(C4)[C@@H]3C2=O)cc1 [Compound 15] | 1 µM
O=C(Nc1ccc(F)cc1)c1ccc(N2C(=O)[C@@H]3[C@@H]4C=CC(C4)[C@@H]3C2=O)cc1 [Compound 13] | 4 µM
O=C(Nc1c(F)cccc1F)c1ccc(N2C(=O)[C@@H]3[C@@H]4C=CC(C4)[C@@H]3C2=O)cc1 [Compound 21] | > 25 µM
COc1ccccc1NC(=O)c1ccc(N2C(=O)[C@@H]3[C@@H]4C=CC(C4)[C@@H]3C2=O)cc1 [Compound 5] | 1 µM
O=C(Nc1ccccc1Br)c1ccc(N2C(=O)[C@@H]3[C@@H]4C=CC(C4)[C@@H]3C2=O)cc1 [Compound 9] | > 25 µM
O=C(Nc1cc(F)cc(F)c1)c1ccc(N2C(=O)[C@@H]3[C@@H]4C=CC(C4)[C@@H]3C2=O)cc1 [Compound 25] | > 25 µM
O=C(Nc1ccc(Br)cc1Br)c1ccc(N2C(=O)[C@@H]3[C@@H]4C=CC(C4)[C@@H]3C2=O)cc1 [Compound 19] | > 25 µM
O=C(Nc1ccc(Br)c(Br)c1)c1ccc(N2C(=O)[C@@H]3[C@@H]4C=CC(C4)[C@@H]3C2=O)cc1 [Compound 24] | 10 µM
O=C(Nc1cccc(F)c1)c1ccc(N2C(=O)[C@@H]3[C@@H]4C=CC(C4)[C@@H]3C2=O)cc1 [Compound 10] | > 25 µM
O=C(Nc1ccc(C(F)(F)F)cc1)c1ccc(N2C(=O)[C@@H]3[C@@H]4C=CC(C4)[C@@H]3C2=O)cc1 [Compound 28] | > 25 µM
O=C(NC1CCCc2cccnc21)c1ccc(N2C(=O)[C@@H]3[C@@H]4C=CC(C4)[C@@H]3C2=O)cc1 (stereo partly shown) [Compound 4] | 10 µM
O=C(Nc1cccc(C(F)(F)F)c1)c1ccc(N2C(=O)[C@@H]3[C@@H]4C=CC(C4)[C@@H]3C2=O)cc1 [Compound 27] | 20 µM
O=C(Nc1ccccc1Cl)c1ccc(N2C(=O)[C@@H]3[C@@H]4C=CC(C4)[C@@H]3C2=O)cc1 [Compound 8] | > 25 µM
O=C(Nc1cc(F)ccc1F)c1ccc(N2C(=O)[C@@H]3[C@@H]4C=CC(C4)[C@@H]3C2=O)cc1 [Compound 20] | > 25 µM

Structure (SMILES) | EC50
O=C(NCc1ccccc1)c1ccc(N2C(=O)[C@@H]3[C@@H]4C=CC(C4)[C@@H]3C2=O)cc1 [Compound 29] | 20 µM
O=C(Nc1ccc(Cl)c(Cl)c1)c1ccc(N2C(=O)[C@@H]3[C@@H]4C=CC(C4)[C@@H]3C2=O)cc1 [Compound 23] | 5 µM
O=C(Nc1cccc(F)c1F)c1ccc(N2C(=O)[C@@H]3[C@@H]4C=CC(C4)[C@@H]3C2=O)cc1 [Compound 16] | > 25 µM
O=C(Nc1cccc(Cl)c1)c1ccc(N2C(=O)[C@@H]3[C@@H]4C=CC(C4)[C@@H]3C2=O)cc1 [Compound 11] | > 25 µM
O=C(Nc1ccc(Cl)cc1Cl)c1ccc(N2C(=O)[C@@H]3[C@@H]4C=CC(C4)[C@@H]3C2=O)cc1 [Compound 18] | 10 µM
O=C(Nc1ccc(F)c(F)c1)c1ccc(N2C(=O)[C@@H]3[C@@H]4C=CC(C4)[C@@H]3C2=O)cc1 [Compound 22] | 3 µM
O=C(Nc1cccc(Br)c1)c1ccc(N2C(=O)[C@@H]3[C@@H]4C=CC(C4)[C@@H]3C2=O)cc1 [Compound 12] | 9 µM
O=C(NCc1ccccn1)c1ccc(N2C(=O)[C@@H]3[C@@H]4C=CC(C4)[C@@H]3C2=O)cc1 [Compound 30] | > 25 µM
O=C(NCc1cccnc1)c1ccc(N2C(=O)[C@@H]3[C@@H]4C=CC(C4)[C@@H]3C2=O)cc1 [Compound 31] | > 25 µM
O=C(NC1CCCCC1)c1ccc(N2C(=O)[C@@H]3[C@@H]4C=CC(C4)[C@@H]3C2=O)cc1 [Compound 35] | > 25 µM
O=C(Nc1ccccc1)c1ccc(N2C(=O)[C@@H]3[C@@H]4C=CC(C4)[C@@H]3C2=O)cc1 [Compound 6] | > 25 µM
O=C(Nc1ccccc1F)c1ccc(N2C(=O)[C@@H]3[C@@H]4C=CC(C4)[C@@H]3C2=O)cc1 [Compound 7] | > 25 µM
Cc1ccc2cccnc2c1NC(=O)c1ccc(N2C(=O)[C@@H]3[C@@H]4C=CC(C4)[C@@H]3C2=O)cc1 [Compound 3] | 0.8 µM
O=C(Nc1ccccc1C(F)(F)F)c1ccc(N2C(=O)[C@@H]3[C@@H]4C=CC(C4)[C@@H]3C2=O)cc1 [Compound 26] | > 25 µM
O=C(Nc1ccc(Cl)cc1)c1ccc(N2C(=O)[C@@H]3[C@@H]4C=CC(C4)[C@@H]3C2=O)cc1 [Compound 14] | 3 µM

same assay, conditions: Mus musculus; Table 2 (50-52, IWR-8 to IWR-14)

Structure (SMILES) | EC50
COc1ccc(NS(=O)(=O)c2ccc(N3C(=O)[C@@H]4[C@@H]5C=CC(C5)[C@@H]4C3=O)cc2)cc1 [IWR-14] | 10 µM
O=C1[C@@H]2[C@@H]3C=CC(C3)[C@@H]2C(=O)N1c1ccc(S(=O)(=O)Nc2cccc(Br)c2)cc1 [IWR-10] | 2 µM
O=C(Nc1cccc2cccnc12)c1ccc(N2C(=O)[C@@H]3[C@@H]4CCC(C4)[C@@H]3C2=O)cc1 [Compound 52] | 0.2 µM
O=C1[C@@H]2[C@@H]3C=CC(C3)[C@@H]2C(=O)N1c1ccc(S(=O)(=O)Nc2ccc(Br)cc2)cc1 [IWR-11] | 3 µM
COc1ccccc1NS(=O)(=O)c1ccc(N2C(=O)[C@@H]3[C@@H]4C=CC(C4)[C@@H]3C2=O)cc1 [IWR-12] | 10 µM
CN(C(=O)c1ccc(N2C(=O)[C@@H]3[C@@H]4C=CC(C4)[C@@H]3C2=O)cc1)c1cccc2cccnc12 [Compound 50] | > 25 µM
O=C(Nc1cccc2cccnc12)c1ccc(N2C(=O)[C@@H]3[C@H]4C=CC(C4)[C@@H]3C2=O)cc1 [Compound 51] | 5 µM
O=C1[C@@H]2[C@@H]3C=CC(C3)[C@@H]2C(=O)N1c1ccc(S(=O)(=O)Nc2ccccc2Br)cc1 [IWR-9] | > 25 µM
O=C1[C@@H]2[C@@H]3C=CC(C3)[C@@H]2C(=O)N1c1ccc(S(=O)(=O)Nc2cccc3cccnc23)cc1 [IWR-8] | > 25 µM
COc1cccc(NS(=O)(=O)c2ccc(N3C(=O)[C@@H]4[C@@H]5C=CC(C5)[C@@H]4C3=O)cc2)c1 [IWR-13] | 6 µM

system: caudal fin regeneration in zebrafish; assay: caudal fin regeneration assay in zebrafish; type: in vivo; conditions: zebrafish, FIG. 25, concentration not given
Procedure: FIG. 25. […] Arrows indicate the points of resection.
6 month-old zebrafish were incubated 8 or 14 days at 28.5° C. in aquarium water supplemented with 10 μM IWR or in 0.1% DMSO as a control. Fish were fed standard diet, and solutions were changed daily. At the end of the exposure, zebrafish were incubated in 1 mM BrdU in aquarium water for 2 hrs at room temperature, then washed several times in aquarium water, anesthetized with 0.1% Tricaine, and fixed in 4% paraformaldehyde for 48 hrs at 4° C. The intestine was dissected out, dehydrated, paraffin embedded and sectioned at […] intervals. Sections were stained with Hematoxylin and Eosin or processed for BrdU immunohistochemistry as described (Shepard et al., 2005). Sections from 8 animals each from IWR and DMSO groups were independently scored by four blinded observers. The total number of intestinal folds and total number of BrdU-positive nuclei in the mid and distal sections of the intestine were counted from each section. For caudal fin regeneration assays, zebrafish, 3-6 months of age, were anaesthetized in 0.2% Tricaine and half of the fin was resected using a razor blade to remove Amputees were reared at 31° C. in tanks containing either 300 ml of water with DMSO or IWR (10 μM). Water and compounds were replenished daily for a total assay period of 4 days.

Structure (SMILES) | inhibition of fin regeneration
O=C(Nc1ccc(F)cc1F)c1ccc(N2C(=O)[C@@H]3[C@@H]4C=CC(C4)[C@@H]3C2=O)cc1 [Compound 17] | only retarded the growth of the tail fin
O=C(Nc1ccc(F)cc1)c1ccc(N2C(=O)[C@@H]3[C@@H]4C=CC(C4)[C@@H]3C2=O)cc1 [Compound 13] | partial inhibition
